# Reference: ChEMBL document CHEMBL1144776, “Anti-inflammatory constituents of the red alga Gracilaria verrucosa and their synthetic analogues” (J Nat Prod, 2008)
# pIC50: −log10 of the molar value. Calls of active or inactive are those of the source. The rule behind the calls is not given here.
# Assays:
# Type in all cases: functional, cell-based
# RAW264.7 [1] = assay: Antiinflammatory activity in mouse RAW264.7 cells assessed as inhibition of LPS-stimulated nitric oxide production after 24 hrs by […]; settings: RAW264.7, 24 h
# RAW264.7 [2] = assay: Suppression of iNOS mRNA expression in mouse RAW264.7 cells
# RAW264.7 [3] = assay: Antiinflammatory activity in mouse RAW264.7 cells assessed as inhibition of LPS-stimulated NO production at 5 to 20 ug/mL after 24 hrs by […]
SMILES,pIC50 (RAW264.7 [1]),Activity (RAW264.7 [2]),Activity (RAW264.7 [3])
CCCCCCCCC(=O)/C=C/CCCCCCC(=O)O,> 4.47,Active,
CCCCCCCC/C=C(\C(=O)CCCCCCC(=O)O)c1ccccc1,,,inactive
CCCCCCC/C=C(\C(=O)CCCCCCCC(=O)O)c1ccccc1,,,inactive
CCCCCCC/C=C/C(=O)CCCCCCCC(=O)O,> 4.47,Active,
CCCCCCC/C=C(\C(=O)CCCCCCCC(=O)OC)c1ccccc1,,,inactive
CCCCCCCC(=O)/C(=C\CCCCCCCC(=O)OC)c1ccccc1,,,inactive
